IC50 data for two molecules are collected here from BindingDB's records for patent US12234222 (Zhejiang Hisun Pharmaceutical, 2025).

Each structure is given as a SMILES string.

Experiment [1] deals with Proto-oncogene tyrosine-protein kinase receptor Ret (Homo sapiens, UniProt P07949). Kind of experiment: RET Kinase Assay. The procedure: The experimental steps are as follows:(1) The test compound (the compound of the present disclosure, and compound 164 in WO2018017983A1 as a control) was dissolved in 100% DMSO to a final concentration of 10 mM.(2) 4 μL of the test compound solution prepared in step (1) was dissolved with 46 μL of 100% DMSO, and the solution obtained in this step was numbered as No. 2.(3) No. 2 solution was subjected to subsequent gradient dilution with a dilution factor of 5 times (i.e. 20 μL of 100% DMSO was added to 5 μL of the compound), a total of 9 gradients, numbered 3 to 11.Note: No. 2 was not used for the dilution in step (4).(Unless otherwise specified, the following steps need to be carried out on ice)(4) The buffer provided in the kit (Cisbio, Cat. No. 62TK0PEB) was used to continuously serially dilute the solutions numbered from 3 to 11 with a dilution factor of 20 times (that is, adding 19 μL of buffer to the solutions numbered from 3 to 11). […] After the incubation, the TF-FRET mode of the microplate reader (BMG Labtech, model: FLUOStar Omega) was adopted to measure the fluorescence intensity at an excitation wavelength of 304 nm and emission wavelengths of 615 nm and […] in each well. […]

The target of experiment [2] is Vascular endothelial growth factor receptor 2 (Homo sapiens, UniProt P35968).
Sequence of Vascular endothelial growth factor receptor 2 (P35968 whole entry): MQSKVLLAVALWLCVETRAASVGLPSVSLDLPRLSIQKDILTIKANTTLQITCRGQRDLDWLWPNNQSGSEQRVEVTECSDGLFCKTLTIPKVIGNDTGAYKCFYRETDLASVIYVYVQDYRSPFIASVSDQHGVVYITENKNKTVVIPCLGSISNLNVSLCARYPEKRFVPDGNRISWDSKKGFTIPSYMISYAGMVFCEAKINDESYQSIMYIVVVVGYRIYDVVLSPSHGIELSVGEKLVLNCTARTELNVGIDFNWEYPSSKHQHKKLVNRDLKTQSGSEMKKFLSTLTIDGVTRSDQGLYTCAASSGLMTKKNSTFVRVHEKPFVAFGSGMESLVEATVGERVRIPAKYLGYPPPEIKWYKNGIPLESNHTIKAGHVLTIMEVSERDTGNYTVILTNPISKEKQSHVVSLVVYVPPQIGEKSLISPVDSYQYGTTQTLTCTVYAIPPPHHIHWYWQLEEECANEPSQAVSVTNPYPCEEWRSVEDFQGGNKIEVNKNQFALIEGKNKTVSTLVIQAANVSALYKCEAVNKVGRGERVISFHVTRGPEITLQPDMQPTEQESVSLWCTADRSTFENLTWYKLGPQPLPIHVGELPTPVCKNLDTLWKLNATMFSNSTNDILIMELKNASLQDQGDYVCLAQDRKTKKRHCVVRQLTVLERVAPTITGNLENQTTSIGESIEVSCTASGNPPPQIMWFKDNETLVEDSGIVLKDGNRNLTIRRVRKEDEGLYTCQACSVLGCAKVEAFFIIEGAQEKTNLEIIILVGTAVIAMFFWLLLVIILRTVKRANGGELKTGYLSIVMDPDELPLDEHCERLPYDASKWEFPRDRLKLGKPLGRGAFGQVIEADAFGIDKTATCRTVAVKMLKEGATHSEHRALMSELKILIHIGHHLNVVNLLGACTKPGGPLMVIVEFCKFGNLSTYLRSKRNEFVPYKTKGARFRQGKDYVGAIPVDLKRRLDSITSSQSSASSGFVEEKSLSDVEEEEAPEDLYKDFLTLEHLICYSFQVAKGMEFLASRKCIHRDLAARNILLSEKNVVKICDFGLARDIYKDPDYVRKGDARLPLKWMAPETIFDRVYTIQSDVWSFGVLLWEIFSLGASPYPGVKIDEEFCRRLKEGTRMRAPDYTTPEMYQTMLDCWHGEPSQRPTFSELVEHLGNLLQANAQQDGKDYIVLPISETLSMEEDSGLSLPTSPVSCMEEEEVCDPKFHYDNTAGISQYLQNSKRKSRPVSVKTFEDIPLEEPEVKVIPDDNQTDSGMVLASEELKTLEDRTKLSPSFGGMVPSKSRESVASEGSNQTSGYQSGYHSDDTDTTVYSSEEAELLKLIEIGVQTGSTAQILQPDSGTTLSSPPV

Sequence of Proto-oncogene tyrosine-protein kinase receptor Ret (P07949 whole entry): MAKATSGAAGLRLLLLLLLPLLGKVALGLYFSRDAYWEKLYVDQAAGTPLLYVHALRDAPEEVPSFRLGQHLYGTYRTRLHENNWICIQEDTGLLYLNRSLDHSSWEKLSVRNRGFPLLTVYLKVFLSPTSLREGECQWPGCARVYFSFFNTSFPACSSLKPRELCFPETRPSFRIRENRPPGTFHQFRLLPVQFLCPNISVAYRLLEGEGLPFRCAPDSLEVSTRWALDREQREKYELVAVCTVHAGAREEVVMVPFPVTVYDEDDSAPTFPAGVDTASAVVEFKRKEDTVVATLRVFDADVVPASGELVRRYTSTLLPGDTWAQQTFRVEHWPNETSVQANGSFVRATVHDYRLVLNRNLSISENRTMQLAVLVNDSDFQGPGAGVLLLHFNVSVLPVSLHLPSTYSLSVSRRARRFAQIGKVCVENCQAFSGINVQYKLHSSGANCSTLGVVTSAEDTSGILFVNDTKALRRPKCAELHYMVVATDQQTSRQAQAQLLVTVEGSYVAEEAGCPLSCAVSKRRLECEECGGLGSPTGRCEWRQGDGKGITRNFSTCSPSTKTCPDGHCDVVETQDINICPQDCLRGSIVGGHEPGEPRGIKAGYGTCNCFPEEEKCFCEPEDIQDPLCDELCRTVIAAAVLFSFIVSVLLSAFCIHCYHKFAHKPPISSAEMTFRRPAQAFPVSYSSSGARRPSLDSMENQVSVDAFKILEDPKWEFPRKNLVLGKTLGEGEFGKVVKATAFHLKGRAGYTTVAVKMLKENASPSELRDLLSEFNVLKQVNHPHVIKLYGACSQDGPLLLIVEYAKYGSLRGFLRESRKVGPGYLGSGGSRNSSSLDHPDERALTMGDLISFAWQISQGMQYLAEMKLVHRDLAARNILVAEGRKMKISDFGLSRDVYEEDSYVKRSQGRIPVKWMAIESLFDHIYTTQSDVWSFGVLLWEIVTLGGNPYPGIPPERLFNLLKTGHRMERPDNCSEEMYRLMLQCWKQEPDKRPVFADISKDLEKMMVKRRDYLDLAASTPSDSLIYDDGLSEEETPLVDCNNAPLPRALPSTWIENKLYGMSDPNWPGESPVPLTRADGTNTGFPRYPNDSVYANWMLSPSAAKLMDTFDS

For the molecule `Cc1cc(Nc2cc(C)[nH]n2)nc(N2CC3CCC(C2)N3C(=O)c2ccc(-n3cc(Cl)cn3)nc2)n1` [US12234222, Compound I-8], the concentration for half-maximal inhibition (IC50) (usually the midpoint of a concentration-inhibition curve) in experiment [1] turned out to be 0.0017 µM; in experiment [2] it was 0.107 µM.

Turning to `Cc1cc(Nc2ccnc(N3CC4CCC(C3)N4C(=O)c3ccc(-n4cc(F)cn4)nn3)n2)n[nH]1` [US12234222, Compound I-14], the IC50 in experiment [1] came out at 0.0039 µM; in experiment [2], 0.141 µM.
